Results from patent US8617614B2, “Sustained release preparation for tissue regeneration therapy” (Ono Pharmaceutical Co., Ltd., priority 2006, dated 2013).

Assays:
[1] = Blood concentration measurement test; format: in vivo; details: male, Crl:CD (Sprague-Dawley), rat, plasma, 10 mg/kg
Experimental: Male Crl:CD (Sprague-Dawley) rats (SPF; Charles River Japan; 8-week-old) were subcutaneously administered the various preparations (microspheres) shown in Table 9 below at a dose of 5 mL/kg under non-fasting conditions. […] The blood thus obtained was centrifuged at 12,000 rpm for 2 minutes, and the supernatant was collected as plasma.
Blood concentration measurements of the present drug in the resulting plasma were carried out by a LC/MS/MS method. Pretreatment of the plasma consisted of adding an internal standard solution to the plasma and diluting with water, then loading into a solid-phase extraction cartridge column (ODS-B) and deproteinization by rinsing with water, followed by elution with methanol, concentration, and drying to hardness. The residue thus obtained was dissolved by adding 0.1% aqueous acetic acid/acetonitrile, and the resulting solution was poured into the LC/MS/MS apparatus.
• Present drug (Precursor ion (m/z)*: 429.2; Product ion (m/z)*: 79.2) • Internal standard (Precursor ion (m/z)*: 445.4; Product ion (m/z)*: 168.1) • *: Mass-to-charge ratio Retention time for present drug: 8.15 minutes • Test Group 1: Microspheres of Test Preparation 1 were administered subcutaneously at a dose of the present drug of 10 mg/kg. • Test Group 2: Microspheres of Test Preparation 2 were administered subcutaneously at a dose of the present drug of 10 mg/kg. • Test Group 3: Administered subcutaneously at a dose of the present drug of 10 mg/kg. • Test Group 4: Administered orally at a dose of the present drug of 10 mg/kg.
The test preparations used on the respective dose groups were formulated as shown below in Table 9. Each of the test preparations was prepared in general accordance with the method described in Preparation Example 1.

EGF = EGF production promoting effect, angiogenesis kit culture, ELISA; format: cell-based, human; details: 100 nmol/L
Experimental: An angiogenesis kit (Kurabo Industries Ltd.) composed of normal human umbilical vein endothelial cells and normal human skin fibroblasts was procured and used.
Using a carbon dioxide incubator (BNA-121D) and using Angiogenesis Culture 2 provided with the angiogenesis kit as the liquid culture, culturing was carried out in a wet environment at 37° C. with 5% carbon dioxide/95% air.
Immediately after the kit arrived, the cells were cultured for 3 hours, following which the liquid culture was replaced and culturing was continued. Three days after the start of culturing, the liquid culture was again replaced. Six days after the start of culturing, treatment with the present drug was carried out by replacing the liquid culture. The treatment concentration was set to 100 nmol/L in each case. DMSO treatment was carried out as a negative control. Six, 24, 48 and 72 hours after treatment with the present drug, the culture supernatant was collected and furnished for measurement of the growth factors. The measured growth factors were EGF and SDF-1.
The culture supernatant was measured with the following ELISA kits.
Human EGF Immunoassay (R&D Systems Inc., DEG00)

[2] = system: STZ induced diabetes model; assay: Time course of blood sugar level, STZ induced diabetes model; format: in vivo; details: STZ rat, Test Group 3: 3 mg/kg oral twice daily
Experimental: Female Sprague-Dawley rats (8- to 11-week-old; Japan SLC, Inc.) were intraperitoneally administered 40 mg/kg of a citrate buffer (pH, approx. 4.5) of streptozotocin (STZ; Sigma). A normal control group was intraperitoneally given only the citrate buffer. Two weeks after STZ administration, the blood sugar, nerve conduction velocity and body weight were measured, the animals were divided into groups uniform for these properties, and administration of the test substance was begun. To determine the change over time in blood sugar, the blood sugar level was measured 4, 8 and 12 weeks following the start of test solution administration (on the day prior to nerve conduction velocity measurement). The blood sugar level of blood drawn from the caudal vein was measured using a blood sugar analyzer (Antisense II; Bayer-Sankyo). Following measurement of the blood sugar 12 weeks later, the animals were deprived of food for at least 16 hours and the fasting blood sugar and insulin were measured. In addition, a 2 g glucose tolerance test was carried out in which blood was similarly drawn 30, 60 and 120 minutes after sugar loading, and the blood sugar and insulin values were measured. In Groups 2 to 5, the feeding blood sugar level two weeks after STZ administration was measured. Of rats with blood sugar levels above 300 mg/dL, severely diabetic rats were excluded therefrom, and the remaining rats were used as diabetes model animals. Groups were formed in such a way as to make the respective groups uniform with respect to nerve conduction velocity, blood sugar level and body weight. Administration was carried out in accordance with the intended route of administration for clinical use. In Test Group 3, forced administration was carried out orally using a disposable syringe barrel and a rat stomach probe. In Test Group 4, intramuscular administration was carried out uniformly at four places within the muscle along the sciatic nerve in the femoral portion of the left leg. For subcutaneous administration in test Group 5, the animals were ether anesthetized, and subcutaneous administration was carried out in the dorsal region using a disposable syringe barrel and a disposable 25 G syringe needle. The volume of solution administered was computed based on the latest body weight. The amount of microspheres administered indicates the amount of the present drug included.

[3] = po, Test Group 4: present drug oral 10 mg/kg
[4] = sc, Test Group 3: present drug s.c. 10 mg/kg

O=C(O)COc1cccc2c1CCC=C2CCO/N=C(\c1ccccc1)c1cccnc1 [present drug, ({5-[2-({[(1E)-phenyl(pyridin-3-yl)methylene]amino}oxy)ethyl]-7,8-dihydronaphthalen-1-yl}oxy)acetic acid]
concentration at 1 hour [1, 3]: 785 ng/mL
concentration at 2 hours [1, 3]: 982 ng/mL
concentration at 4 hours [1, 3]: 1320 ng/mL
concentration at 8 hours [1, 3]: 705 ng/mL
concentration at 1 day [1, 3]: 80 ng/mL
concentration at 3 days [1, 3]: 0.04 ng/mL
concentration at 1 hour [1, 4]: 1750 ng/mL
concentration at 2 hours [1, 4]: 1400 ng/mL
concentration at 4 hours [1, 4]: 685 ng/mL
concentration at 8 hours [1, 4]: 870 ng/mL
concentration at 12 hours ([1]; sc, Test Group 3: present drug s.c. 10 mg/kg, 12 hours): 204 ng/mL
concentration at 1 day [1, 4]: 1.05 ng/mL
concentration at 2 days ([1]; sc, Test Group 3: present drug s.c. 10 mg/kg, 2 days): < 0.2 ng/mL
concentration at 3 days [1, 4]: 0.05 ng/mL
EGF relative to the solvent control group (EGF; 72 hours after treatment): significantly increased
EGF, Drug group (EGF; culture supernatant 72 hours after treatment): 4995 ± 442 pg/mL
Blood sugar (mg/dL) 0 weeks [2]: 567 ± 73 mg/dL
Blood sugar (mg/dL) 4 weeks [2]: 555 ± 39 mg/dL
Blood sugar (mg/dL) 8 weeks [2]: 600 ± 64 mg/dL
Blood sugar (mg/dL) 12 weeks [2]: 510 ± 84 mg/dL
blood sugar relative to Test Group 2 ([2]; at any of the times): A significant decline in blood sugar was not observed
